From patent US7875270B2, “Treatment solution and method for preventing posterior capsular opacification by selectively inducing detachment and/or death of lens epithelial cells” (Abbott Medical Optics Inc., priority 2002, dated 2011)

Legend:
[1] = tested on: human corneal endothelial cells (CEDCs); assay: Confluent CEDC monolayers exposed to solutions; MTT cell viability; format: cell-based; conditions: 28 μM, 112 μM and 224 μM bumetanide, ≦200 mM NaCl, 3 μl of 5N NaOH
Experimental: As described below, the confluent monolayers of LECs, CEDCs, and RPECs grown in 96-well flat-bottom plates are exposed to varying concentrations of NaCl (an osmolyte) solution. Two hundred μl of NaCl solution (prepared as described below) are added to each well at concentrations of 137 mM, 170 mM, 340 mM, 680 mM, 1360 mM and 2000 mM NaCl, respectively. The solutions have a pH of 8.0±0.4. The concentrations of NaCl correspond to final osmolarities of about 285 to 4000 mOsm/L, respectively.
The primary and first passages of human lens epithelial cells, human corneal endothelial cells, and human retinal-pigmented epithelial cells are cultured. The LECs, the CEDCs, and the RPECs are isolated from post-mortem eyes by using standard techniques of cell isolation and enzyme digestion. See Uebersax E D, Grindstaff R D and Defoe D M Exp Eye Res. 2000 March; 70(3): 381-90; Wagner L M, Saleh S M, Boyle D J, and Takemoto D J. Mol Vis. 2002 Mar. 14; 8: 59-66; Cammarata P R, Schafer G, Chen S W, Guo Z, and Reeves R E. Invest Ophthalmol Vis Sci. 2002 February; 43(2): 425-33; Rakic J M, Galand A, and Vrensen G F. Exp Eye Res. 2000 November; 71(5): 489-94. LECs and CEDCs are cultured in Eagle's minimum essential medium (MEM). RPECs are cultured in Ham's F10 medium, supplemented with 2 mM glutamine, 25 mmol/L Hepes, pH 7.4, 10 U/mL penicillin, and 10 μg/mL streptomycin and 15% heat-inactivated foetal cow serum (FCS). […]
After treatment, the treated cells are thoroughly washed, and cultured with fresh media for twelve hours before cell viability is assessed. The capability of these cells to survive at the indicated hypertonic stress levels is assessed by an MTT assay 12-24 hours post-exposure.
MTT assay is an assay to assess mitochondria function, performed as described by Mosmann (Mosmann, T. J Immunol Methods. 1983 Dec. 16; 65(1-2): 55-63. The tetrazolium salt 3-(4,5-dimethylthiazol-2-yl)-2,5-diphenyl tetrazolium bromide (MTT; supplied by Sigma Chemical Co.) is dissolved in Phosphate's Balanced Salt (PBS) Solutions at 5 mg/ml and sterilized by passage through a 0.22 μm Millipore filter. MTT stock solution is added to growth media at a ratio of 1 to 10. Cells are incubated with this growth media for three to four hours. In cells that are alive at the time of adding MTT, mitochondrial dehydrogenase cleaves the tetrazolium ring into a dark blue formazan reaction product, which builds up in the cell. […] Cells in each well are scored as MTT-positive if they are completely filled with reaction product (in the case of unattached cells) or contain many formazan crystals emanating from multiple foci (in the case of attached or spread cells). MTT-reacted cultures are then lysised by dimethyl sulfoxide (DMSO) and read in a Microplate Reader to obtain a measure of cell viability. […]

[2] = tested on: human LECs-CCCs freshly removed from cataract operation; assay: In situ treatment of LECs attached to capsulorhexis lens capsule (LECs-CCC); format: cell-based
Experimental: The in situ effects of a treatment solution comprising dihydrochlorothiazide (DHCT) (a cotransport interference agent from the group of the thiazide and related diuretics) and hyperosmotic NaCl on human LECs is examined. The treatment is tested on LECs that are still attached to a continuous curvilinear capsulorhexis lens capsule (LECs-CCC) which are freshly removed from a human cataract operation.
The LECs-CCCs are obtained from a cataract operation and immediately put in freshly prepared Eagle's Minimum Essential Medium (MEM) supplemented with 2 mM glutamine, 25 mmol/L Hepes (pH 7.4) without foetal cow serum (FCS) and is transferred to the laboratory for evaluation. Viable LECs are identified by staining the LECs-CCCs for five minutes with 0.2% Trypan Blue. The sheets containing more than 70% viable LECs are used to assess the efficacy of the treatment. […]
In the first step, a hyperosmotic solution of NaCl is prepared by making a stock solution of 2 M NaCl by adding 58.44 g NaCl (supplied by Sigma Chemical Co., U.S.) to 500 ml dH2O. The desired concentration of osmotic NaCl is prepared by diluting the 2M stock solution with dH2O. For example, to make a hyperosmotic solution of 170 mM NaCl, the 2M NaCl stock solution was diluted with dH2O at a ratio of […]. To make a hyperosmotic solution of 200 mM NaCl, the 2M NaCl stock solution is diluted with dH2O at a ratio of 1 to 9. Final osmolarities (mOsm/kg/H2O) are determined by a freezing point depression method using cryoscopic osmometry.
In the second step, DHCT stock solution is made by adding 25 mg DHCT to 1 ml dH2O. […]
The treatment is applied by exposing the LECs-CCCs for five minutes in a small petri dish containing the treatment solution. The treatment solution is removed after five minutes exposure by a syringe and then the fresh PBS is added in the petri dish to wash away the treatment solution. The LECs-CCCs are washed three times. The changes of the LECS are monitored under a microscope. Microscope photographs are taken at 0, 2 and 5 minutes and after wash.

Compound: CCCCNc1cc(C(=O)O)cc(S(N)(=O)=O)c1Oc1ccccc1 [bumetanide]
- CEDCs killed or removed [1]: < 30%
- LEC changes after exposure ([2]; 308 μm bumetanide and hyperosmotic 170 or 200 mM NaCl): do not detach, but arrest and die while shrunken
- LEC death by trypan blue exclusion ([2]; 308 μm bumetanide and hyperosmotic NaCl, after washing): cells died after treatment
